According to US9078874B2, “Composition and method for treating cognitive impairments in down syndrom subjects” (Centre National De La Recherche Scientifique—CNRS, priority 2009, dated 2015):

Legend:
euploid and Ts65Dn mice = experiment: Convulsant effects after a single intraperitoneal injection; format: in vivo; conditions: 50 mg/kg i.p., observed 20 min
Procedure: The convulsant action of the α5IA or beta CCM was evaluated after a single intraperitoneal injection of 50 or 3 mg/Kg of α5IA or beta CCM, respectively. The 50 mg/Kg dose of α5IA corresponded to 10 times the dose with promnesiant effects and 10 times the active dose in the object recognition test (5 mg/Kg)
The proconvulsant action of the α5IA was measured after injection of a subconvulsive dose of pentylenetetrazole. Mice were injected with either vehicle or the α5IA (50 mg/kg i.p) and 20 min later they received an intraperitoneal injection of 45 mg/kg of pentylenetetrazole. […] Six to 7 mice were used for each condition. The latency to the first myoclonic jerk episode and the convulsion grade were recorded during a 1200-s period of observation. Four grades were empirically determined: Grade 0: no effect; grade 1: tail up and curved; grade 2: reversed tail and convulsive shivers; grade 3: myoclonic convulsions.
We then tested the proconvulsant effect of α5IA by injecting it (50 mg/kg) 20 min before a sub-convulsant dose of pentylenetetrazol (45 mg/kg) that induces myoclonic convulsions in about 50% of mice.

euploid mice = experiment: Dose-response in the delayed-matching-to-place task (DMTP); format: in vivo; conditions: 5 mg/kg, 30 min before testing; versus placebo; p<0.05
Procedure: FIG. 5 depicts results from a dose-response effect study of α5IA. The optimal α5IA promnesiant dose was determined in mice trained in the DMTP task. FIG. 5A: Schematic representation of the DMTP protocol. Each day, mice underwent 1 acquisition trial and 3 retention trials (inter-trial interval was 60 sec). The position of the platform was changed every day, but remained constant within each session.
To determine the optimal dose of α5IA, a dose-response study was performed in euploid mice trained in the delayed-matching-to-place task (DMTP), a classical learning and memory paradigm used to assess the promnesiant effects of drugs, and in particular of GABAA α5 inverse agonists [ref 8, 9, 11].
Experiments were performed in a Morris water maze (MWM). The maze was a 150-cm diameter pool filled with opacified water kept at 19° C. and equipped with a 9 cm diameter platform submerged 1 cm under the water surface. A total of 27 mice were used. Animals were randomly and equally distributed in 3 groups (placebo, α5IA 1 mg/kg, α5IA 5 mg/kg). Training was performed during 7 days. […] Memory assessment was determined by comparing the distance to reach the platform on the first trial (acquisition trial) and the mean distance traveled in subsequent trials (retention trials).

fos protein = experiment: Cerebral fos immunoreactivity after object recognition acquisition; format: in vivo, mice; conditions: 5 mg/kg i.p.
Procedure: The mechanism of action of α5IA was investigated by quantifying neuronal activity by measuring production of fos protein in mice subjected to an object recognition task (exploration of a new environment).
The protocol that was used involved treating mice (placebo or drug). 30 minutes later, the mice were subjected to exploring a new environment, a situation in which the animal acquires and stores information spontaneously. This behavioral stimulation activates c-fos gene, and the expression product of this gene (the Fos protein) is then detected by immunohistochemistry and quantified using dedicated image analysis software. […]
Image analysis was performed as follows: regions of interest (ROIs) were photographed using an Olympus BX61 microscope (x10 objective) and fos immunostaining was quantified using a dedicated image processing software which automatically calculated the proportion of fos-stained tissue (p=stained area/total area), providing an unbiased stereological measurement of fos immunoreactivity. Four ROIs were analyzed: posterior cingulate cortex, perirhinal cortex, dentate gyms and CA1 field of the hippocampus. Each ROI was sampled on several serial sections and results were then averaged to give a reliable quantitative evaluation of local fos immunostaining.

mouse hippocampal slice = conditions: cited from earlier work
rats [1] = conditions: cited from earlier work
rats [2] = conditions: 240 mg/kg for 5 weeks; cited from earlier work

Which results are given for `Cc1cc(-c2nnc3c4ccccc4c(OCc4cn(C)nn4)nn23)no1` [α5IA, 3-(5-methylisoxazol-3-yl)-6-[(1-methyl-1,2,3-triazol-4-yl)methyloxy]-1,2,4-triazolo[3,4-a]phthalazine]?
Convulsant mice rate (euploid and Ts65Dn mice; Euploids): 0/6; Convulsant mice rate (euploid and Ts65Dn mice; Ts65Dn): 0/7; Performance (distance to platform) between acquisition and retention trials (euploid mice): significantly higher performance; fos immunoreactivity relative to placebo-treated littermates (fos protein; all brain regions sampled, except the dentate gyrus): significant increase of fos; neuronal activity (fos) in the dentate gyrus (fos protein; dentate gyrus): not significantly affected; long-term potentiation (mouse hippocampal slice): enhance long-term potentiation; cognitive performance in variant of the Morris water maze task (rats [1]; rat, in vivo): enhance cognitive performance; effective promnesiant dose in the MWM test (rats [1]; rats): 3 mg/kg; renal toxicity (rats [2]): renal pyelitis and papillitis associated with crystals formation
